Experimental data: patent US9963467B2, “Boronic acid derivatives and therapeutic uses thereof” (Rempex Pharmaceuticals, Inc., priority 2014, dated 2018)

Experiments:
KP1004 (KPC-2) = experiment: Biapenem potentiation (MPC@1), KP1004; settings: read-out: Biapenem MIC KP1004
KP1086 (OXA-48) = experiment: Biapenem potentiation (MPC@1), KP1086; settings: read-out: Biapenem MIC KP1086
[1] = Serum stability of prodrugs, human serum; format: in vitro ADME; settings: for Measured Initial Conc. in Serum / Conc. at t = 2 h / Conc. at t = 4 h: human serum, theoretical initial conc. 40 ug/mL; for Measured Initial Conc. in Serum: 37 degrees; for Conc. at t = 2 h / Conc. at t = 4 h: prodrug
Method: (§1) Prodrug strategy is one of the ways to achieve or increase oral bioavailability for therapeutic drugs. […] After a prodrug molecule is absorbed into systemic circulation, it should be hydrolyzed in the blood in order to release the active form. Hydrolysis of several prodrugs by rat and human serum were evaluated.
(§2) For all stability experiments the test compounds were treated with rat or human serum in Eppendorf tubes. Typically, 992 μl of serum was prewarmed at 37 degrees for 2 minutes and then 8 μl of a compound (at 5 mg/ml, 125×) was added to it to get a final concentration of […] and immediately mixed. Alternatively, serum stability might be tested at 1 mg/ml. […] After vortexing for 30 seconds, the tube was centrifuged in a microcentrifuge for 10 minutes at 15K rpm. Next, 100 μl of the supernatant was combined with 600 μl of water and injected on LC-MS using 0.1% formic acid in water for mobile phase A and 0.1% formic acid in methanol for mobile phase B on an ACE 5 C18 2.1×100 mm column with a 10 μL injection. The flow rate and gradient were adjusted as needed to give the desired resolution and run time. The pH of the mobile phase was adjusted if needed to improve the chromatography.
(§3) The time course of both the disappearance of a prodrug and the appearance of the active form of that prodrug is presented in Table 6 and Table 7. The active metabolites for all of the listed prodrugs are corresponding parent drugs

[2] = Serum stability of prodrugs, rat serum; format: in vitro ADME; settings: theoretical initial conc. 40 ug/mL; for Measured Initial Conc. in Serum: 37 degrees; for Conc. at t = 2 h / Conc. at t = 4 h: prodrug
Method: as §1, §2, §3

SMILES | MIC (KP1004 (KPC-2)) | MIC (KP1086 (OXA-48)) | Measured Initial Conc. in Serum [1] | Conc. at t = 2 h [1] | Conc. at t = 4 h [1] | conversion of prodrug to active metabolite ([1]; serum (Tables 6 and 7), 4 hour experiment) | Measured Initial Conc. in Serum [2] | Conc. at t = 2 h [2] | Conc. at t = 4 h [2]
C[C@@H](O)[C@H]1C(=O)N2C(C(=O)[O-])=C(SC3Cn4cnc[n+]4C3)[C@H](C)[C@H]12 (stereo partly drawn) [Biapenem, reference compound] | > 10 µg/mL | > 10 µg/mL |  |  |  |  |  |  | 
CCCC(=O)OCOC(=O)c1c(F)ccc2c1OB(O)[C@@H](NC(=O)CSC)C2 [Compound 13, (R)-butyryloxymethyl 7-fluoro-2-hydroxy-3-(2-(methylthio)acetamido)-3,4-dihydro-2H-benzo[e][1,2]oxaborinine-8-carboxylate] |  |  | 30.6 µg/mL | 1560 ng/mL | BQL | completely converted to active metabolite | 28.1 µg/mL | 9.81 (t = 2 h) ug/mL | BQL
CSCC(=O)N[C@H]1Cc2ccc(F)c(C(=O)OCOC(C)=O)c2OB1O [Compound 14, (R)-acetoxymethyl 7-fluoro-2-hydroxy-3-(2-(methylthio)acetamido)-3,4-dihydro-2H-benzo[e][1,2]oxaborinine-8-carboxylate] |  |  | 36.8 µg/mL | 5000 ng/mL | 1130 ng/mL |  | 39.6 µg/mL | BQL | BQL
CSCC(=O)N[C@H]1Cc2ccc(F)c(C(=O)OCOC(=O)OC(C)C)c2OB1O [Compound 15, (R)-(isopropoxycarbonyloxy)methyl 7-fluoro-2-hydroxy-3-(2-(methylthio)acetamido)-3,4-dihydro-2H-benzo[e][1,2]oxaborinine-8-carboxylate] |  |  | 33.2 µg/mL | 12800 ng/mL | 5320 ng/mL |  | 30.6 µg/mL | BQL | BQL
